# Assay results reported in US20070141637A1, “Marker for fenestrae” (priority 2004, published 2007).
# What was measured:
# Py4.1 cells = assay: Subtractive 2D-gel analysis of plasma membranes, latrunculin-induced versus control cells; assay type: cell-based, mouse; conditions: Py4.1 plasma membranes, Progenesis Software
# Method: In one embodiment the method of identifying components of fenestrae comprises the step of Subtractive 2D-gel electrophoresis analysis. Sufficient material was pooled to generate one batch of triplicate gels for vehicle-induced and un-induced Py4.1 cells, and three sets of triplicate gels for untreated, vehicle-induced, and induced bEND5 cells (FIG. 6 and FIG. 13). All gels per cell type were analyzed collectively using ProGenesis® software (Prolific, Inc. Newark, Calif.) to obtain fold differences between the staining intensities of spots in the induced and the uninduced samples and p-values for those differences using the Students t-test (FIG. 7). In the first round of analysis, spots that qualified for one or more of the following criteria were selected: a) fold increase in staining intensity greater than 2 in the induced sample, b) p-value less than 0.05 for any fold increase, c) spot being unique in induced sample. A summary of all the spots selected for mass spectrometry, with their accompanying fold differences and p-values is shown in FIG. 15.
# Methods for inducing fenestrae formation in endothelial cells are described in U.S. Provisional Patent No. 60/627,981, which is hereby incorporated by reference in its entirety. Coverslips and dishes were coated with 1% gelatin (Sigma) solution in PBS for 30 minutes at room temperature. […]
# bEND5 and Py4.1 cells = assay: Western blotting of candidate proteins in plasma membranes of latrunculin-induced versus control cells; assay type: cell-based, mouse; conditions: LPM versus CPM, equal amounts of protein
# Method: To confirm the findings of the subtractive proteomic analysis, immunoblotting on the relevant fractions was performed with antibodies to candidate proteins. By comparing equal amounts of protein in the two conditions, change in the protein levels of cofilin, alpha-enolase, radixin, moesin, annexin II, and hnRNP K was evaluated (FIG. 9A, 9B).
# Methods for inducing fenestrae formation in endothelial cells are described in U.S. Provisional Patent No. 60/627,981, which is hereby incorporated by reference in its entirety. Coverslips and dishes were coated with 1% gelatin (Sigma) solution in PBS for 30 minutes at room temperature. Endothelial cells were seeded overnight at a density equivalent to 1.5×10^6 cells per 100 mm dish. Cultures were induced with Cytochalasin B (Sigma) at 10 μM for 2 hours, with Latrunculin A (Molecular Probes) at 2.5 μM for 3 hours, or with a combination of recombinant mouse 75 ng/ml VEGF (R&D systems) for 6-72 hours and 10 μM Cytochalasin B for 2 hours. Cells were processed for biochemistry or morphology immediately after the end of the induction.
# All steps in the procedure were performed on ice or in centrifuges pre-cooled to 4° C. Cells grown on 150 mm dishes were washed twice with PBS containing calcium and magnesium (Invitrogen), and once with coating buffer (20 mM MES, 135 mM NaCl, 0.5 mM CaCl2, 1 mM MgCl2, pH 5.5). […]
structure (smiles),measurement,setting,value
"C/C1=C/C(=O)O[C@@H]2C[C@@H](CC[C@H](C)/C=C\C=C\CC1)O[C@@](O)([C@@H]1CSC(=O)N1)C2 [latrunculin, Latrunculin A]","spot 659 intensity, latrunculin-induced versus control samples",Py4.1 cells,1.772 fold
same,"spot 401 intensity, latrunculin-induced versus control samples",Py4.1 cells; part of a train of spots (phosphorylation states),3.8 fold
same,"enrichment of phosphorylated moesin, hnRNP K, cofilin and alpha-enolase in plasma membranes",bEND5 and Py4.1 cells,Enrichment in induced cells is confirmed
